“And” between values parts separate entries of the source, which are not always exact repeats. Equal entries are not always repeated.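 Method: 48-hour compound exposure of cells in 96-well plates, five concentrations, linear interpolation of endpoints. GI50 is the concentration that inhibits growth by half. The concentration for full growth arrest is given as TGI.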
Columns and labels:
Test in all cases: DTP human tumour cell line panel, 48 h
[1] = test system: SK-OV-3 ovarian
[2] = test system: CAKI-1 renal
[3] = test system: MDA-MB-435
[4] = test system: U251 CNS
[5] = test system: IGROV1 ovarian
[6] = test system: COLO 205 colon
[7] = test system: MCF7 breast
[8] = test system: T-47D breast
[9] = test system: OVCAR-8 ovarian
[10] = test system: SW-620 colon

| Structure (SMILES) | TGI [1] | TGI [2] | TGI [3] | TGI [4] | TGI [5] | TGI [6] | TGI [7] | TGI [8] | TGI [9] | TGI [10] | GI50 [1] | GI50 [3] | GI50 [4] | GI50 [5] | GI50 [6] | GI50 [8] | GI50 [10] |
| --- | --- | --- | --- | --- | --- | --- | --- | --- | --- | --- | --- | --- | --- | --- | --- | --- | --- |
| C=C1C(=O)O[C@H]2[C@@H](O)[C@H](C)CCC[C@]3(C)O[C@H]3CC[C@@]3(C)O[C@@H]3C[C@@H]12 | 25 µM | 13 µM | 10 µM | 15.7 µM | 12.1 µM | 10.3 µM | 7.87 µM | 19.9 µM | 13.4 µM | 5.05 µM | – | – | – | – | – | – | – |
| COC(=O)[C@H](Cc1c[nH]c2ccccc12)NC(=O)c1ccc(CNC(=O)/C=C/c2cccc(Oc3ccccc3)c2)cc1 | > 100 µM | > 100 µM | 27.8 µM | > 100 µM | > 100 µM | > 100 µM | > 100 µM | > 100 µM | > 100 µM | > 100 µM | – | – | – | – | – | – | – |
| COc1cc2c(=O)cnoc2cc1O | > 100 µM | > 100 µM | > 100 µM | > 100 µM | > 100 µM | > 100 µM | > 100 µM | > 100 µM | > 100 µM | > 100 µM | – | – | – | – | – | – | – |
| O=C(O)Cc1ccc2[nH]c(O)c(C3=Nc4ccccc4C3=O)c2c1 | 94.8 µM | > 100 µM | > 100 µM | > 100 µM | 48.2 µM | 92.1 µM | 36.1 µM | > 100 µM | > 100 µM | > 100 µM | – | – | – | – | – | – | – |
| O=C(O)CC1NCc2cc3ccccc3nc21 (configuration not stated) | > 100 µM | > 100 µM | > 100 µM | > 100 µM | > 100 µM | > 100 µM | > 100 µM | > 100 µM | > 100 µM | > 100 µM | – | – | – | – | – | – | – |
| O=C1CC(c2cccc(Br)c2)n2cccc21 (configuration not stated) | > 100 µM | > 100 µM | > 100 µM | > 100 µM | > 100 µM | > 100 µM | > 100 µM | > 100 µM | > 100 µM | > 100 µM | – | – | – | – | – | – | – |
| CC1OC(OC2C(OC(=O)[C@]34CCC(C)(C)C[C@H]3C3=CC[C@@H]5[C@@]6(C)CC[C@H](OC7OC(C(=O)O)C(O)C(OC8OCC(O)C(O)C8O)C7O)C(C)(C)[C@@H]6CC[C@@]5(C)[C@]3(C)CC4)OCC(O)C2O)C(O)C(OC2OCC(O)C(O)C2O)C1OC1OCC(O)C(OC2OCC(O)C(O)C2O)C1O (some centres not stated) | 33.7 µM and > 100 µM | 18.8 µM and 23.1 µM | 20.1 µM and 32 µM | 24.8 µM and 62 µM | 32.6 µM and > 100 µM | 3.63 µM and 20.4 µM | 50.7 µM and > 100 µM | 51.8 µM and > 100 µM | 27.7 µM and 43.1 µM | 29.5 µM and > 100 µM | 15.4 µM and 37.2 µM | 7.32 µM and 16.7 µM | 10.9 µM and 24.2 µM | 11.8 µM and 30.9 µM | 1.8 µM and 7.67 µM | 9.59 µM and 38.3 µM | 13.6 µM and 27.4 µM |
| C=C1C(=O)O[C@@H]2C[C@]3(C)CC[C@]4(C)[C@H](CC[C@@H]5[C@@]6(C)CCC(=O)C(C)(C)[C@@H]6CC[C@]54C)[C@H]3[C@H]12 | 44.1 µM | 30.2 µM | 25.4 µM | 38.4 µM | 39.2 µM | 21.6 µM | 21.4 µM | 34 µM | 38.7 µM | 55.4 µM | – | – | – | – | – | – | – |
| O=C(O)/C(Cc1ccc([N+](=O)[O-])cc1)=N\O | > 100 µM | > 100 µM | > 100 µM | > 100 µM | > 100 µM | > 100 µM | > 100 µM | > 100 µM | > 100 µM | > 100 µM | – | – | – | – | – | – | – |
| CC/C=C(\C(=C/CC)[N+](=O)[O-])[N+](=O)[O-] | > 100 µM | 37.8 µM | 31.6 µM | 34.3 µM | 35.9 µM | 37 µM | 38.1 µM | 55.6 µM | 39 µM | 32 µM | – | – | – | – | – | – | – |
| O=[N+]([O-])c1ccc(C=NCC2CCCN3CCCCC23)cc1 (configuration not stated) | > 100 µM | > 100 µM | > 100 µM | > 100 µM | > 100 µM | > 100 µM | 66.6 µM | > 100 µM | > 100 µM | > 100 µM | – | – | – | – | – | – | – |
| CCOC(=O)C(NC(=O)c1ccccc1)(N1CCOCC1)C(F)(F)F (configuration not stated) | > 100 µM | > 100 µM | > 100 µM | > 100 µM | > 100 µM | > 100 µM | > 100 µM | > 100 µM | > 100 µM | > 100 µM | – | – | – | – | – | – | – |
| COc1ccc(C2C3COc4ccccc4C3=NN2c2ccccc2)cc1 (configuration not stated) | > 100 µM | > 100 µM | > 100 µM | > 100 µM | > 100 µM | > 100 µM | > 100 µM | > 100 µM | > 100 µM | > 100 µM | – | – | – | – | – | – | – |
| Cc1cn([C@@H]2O[C@H](CO[Si](C)(C)C(C)(C)C)[C@]3(O[C@H]3C(=O)NN)[C@H]2O[Si](C)(C)C(C)(C)C)c(=O)[nH]c1=O | 36.2 µM | 28.2 µM | 23.1 µM | 14.5 µM | 18.6 µM | 6.74 µM | 15.1 µM | 6.32 µM | 19.8 µM | 20 µM | – | – | – | – | – | – | – |
| Cc1ccc(/C=N/Nc2ccc3ccccc3n2)s1 | > 100 µM | > 100 µM | 56.7 µM | 67.6 µM | 53.8 µM | 31.1 µM | 45.1 µM | > 100 µM | > 100 µM | 92.1 µM | – | – | – | – | – | – | – |
| Clc1ccc(C2Nc3ccccc3C3=NCCN32)cc1 (configuration not stated) | > 100 µM | > 100 µM | 39.8 µM | 78.6 µM | 49.2 µM | 25.7 µM | 57.3 µM | 46.9 µM | 38.3 µM | 98.6 µM | – | – | – | – | – | – | – |

Reference: PubChem BioAssay (NCI)
